Measured values published in publication PMC4434909, “In vitro properties of designed antimicrobial peptides that exhibit potent antipneumococcal activity and produces synergism in combination with penicillin” (Scientific Reports, 2015).
Several values for one entry are separate records, joined by “and”; a condition that tells them apart may be missing. Equal values may be shown once. Read-outs that look alike come from different tables or passages of the source. Where no end group is shown, it is not given here.

How the values were obtained:
[1] = tested on: penicillin-resistant Streptococcus pneumoniae (PRSP); format: cell-based; details: for MIC, PRSP: MIC range over 20 PRSP isolates, CLSI broth microdilution, CAMHB with 5% laked horse blood, 18–24 hrs 37°C 5% CO2, peptides 1.96–250 μg/ml, three independent experiments; for EP %, PRSP: effective percentage: proportion of isolates inhibited within the MIC range
Description: (§1) All bacterial strains were obtained from Department of Medical Microbiology, University of Malaya. Clinical isolates were previously obtained from University of Malaya Medical Centre and maintained in the laboratory. Sheep blood agar was used for pneumococcal cultivation purpose. Nutrient agar was used for cultivating E. coli ATCC 25922, S. aureus ATCC 25923, and P. aeruginosa ATCC 15442, Acinetobacter baumanii ATCC 15308, and one clinical isolate for each MRSA, E. cloacae, Citrobacter spp., and K. pneumoniae. For antimicrobial testing, Mueller-Hinton agar (MHA) and cationically-adjusted MHB (CAMHB) were prepared according to the Clinical and Laboratory Standard Institute guidelines. MHA for S. pneumoniae was supplemented with 5% (v/v) defibrinated sheep blood and 5% laked horse blood for CAMHB. All bacterial cultures were stored in multiple vials in brain heart infusion broth supplemented with 10% (v/v) glycerol at −80°C to avoid repeated freeze-thawed cycles on the cells. All freeze-stocked strains were passaged twice prior to experimentation.
(§2) Procedures were performed to determine the MIC of peptides according to the CLSI guidelines[21] against 60 pneumococcal isolates which consisted of 20 isolates each for PRSP, PISP, and PSSP. Strains were grown for 18–24 hrs at 37°C under 5% CO2. Direct suspension of the colonies were made in CAMHB and adjusted to OD625 0.08–0.1 which corresponds to 1 ~ 2 × 10^8 CFU/ml followed by serial ten-fold dilutions to give 1 × 10^6 CFU/ml. Fifty microliters of bacterial suspension was then aliquoted to 96-well round bottom microtiter plates containing equal volume of serially diluted peptides to give final concentrations of peptides encompassing the range of 1.96–250 μg/ml. […] The plates were incubated for 18–24 hrs at 37°C under 5% CO2. MIC was read as the concentration of peptide producing complete inhibition on the visible growth of the test organism. Results were pooled from three independent experiments. MIC range was defined as the range of concentrations where the peptides produce detectable antimicrobial activity. Effective percentage (EP) was the proportion of pneumococcal isolates inhibited within the MIC range. Since the isolates tested were obtained prior to 2008 where major revision in antibiotic susceptibility breakpoints were introduced, thus the pneumococci were defined according to the PEN susceptibility breakpoint (prior 2008) which corresponds to the PEN (oral penicillin V) breakpoint of the revised criteria.

[2] = tested on: human erythrocytes; test: Hemolytic activity; format: cell-based; details: for Hmax: percentage hemolysis at the highest concentration tested (all peptides 250 μg/ml; PEN 4 μg/ml)
Experimental: Hemolytic assay was performed as described. Freshly drawn human erythrocytes were rinsed three times with PBS and resuspended in PBS to 4% (v/v). One hundred microliters of the suspension was added to 96-well microtiter plate containing equal volume of peptides to give final concentrations of peptides encompassing the range of 1.96–250 μg/ml. PBS and 0.1% (v/v) Triton-X 100 were used as 0% and 100% hemolytic control respectively. Plates were incubated at 37°C for 1 hr. Subsequently, the plate was centrifuged and the supernatant was transferred to a new plate. The release of hemoglobin in the supernatant was monitored at absorbance of 450 nm using Glomax Multidetection system (Promega, USA). Results were pooled from three independent experiments and expressed as mean ± SD. HC10 and HC50 were defined as the peptide concentrations causing 10% and 50% hemolysis on human erythrocytes, respectively. Hmax was the percentage hemolysis observed at the maximum concentration as defined throughout this study (all peptides 250 μg/ml, PEN 4 μg/ml).

[3] = tested on: K. pneumoniae; format: cell-based, Klebsiella pneumoniae; details: Gram-negative, clinical isolate; broth microdilution, CAMHB, peptides 1.96–250 μg/ml
Description: as §1, §2
The broad spectrum antibacterial activity of the peptides against a panel of eight clinically important bacteria was also determined, this includes S. aureus ATCC 25923, E. coli ATCC 25922, P. aeruginosa ATCC 15442, A. baumanii ATCC 15308, and one clinical isolate each for MRSA, E. cloacae, Citrobacter spp., and K. pneumoniae.

[4] = concentration causing 10% hemolysis, 4% (v/v) erythrocytes in PBS, 37°C 1 hr, absorbance 450 nm, mean ± SD of three independent experiments
[5] = concentration causing 50% hemolysis, 4% (v/v) erythrocytes in PBS, 37°C 1 hr, absorbance 450 nm, three independent experiments
[6] = mean ± SD of three independent experiments

Substance	MIC, PRSP [1] [mg/L]	EP %, PRSP [1]	HC10 [2] [µg/mL]	HC50 ([2]; red cells of human, 1 h) [µg/mL]	MIC, K. pneumoniae [3] [mg/L]	difference between lowest and highest detectable MIC against S. pneumoniae [fold]	HC10 [2, 4] [µg/mL]	HC50 [2, 5] [µg/mL]	Hmax [2, 6]	hemolysis at the effective MIC level against S. pneumoniae ([2]; red cells of human, 1 h) [%]
GLFDIWAWWRWRR-NH2 [DM2]	15.63 to 250	(100.0) %	114.3	>250	>250	32				
GLFDIWKKLRWRR-NH2 [DM5]	31.3 to 125	(100.0) %	> 250	>250	250					
GLFDIWKKWRWRR-NH2 [DM4]	31.3 to 125	(100.0) %			>250		> 250	>250	< 1.0% and 0.6 ± 0.1%	
GLFDIWKWWRWRR-NH2 [DM3]	15.63 to 62.5	(100.0) %	52.7	>250	62.5					≤ 15
GLFDKWAWWRWRR-NH2 [DM1]	31.3 to 125	(100.0) %			>250		> 250	>250	< 1.0% and 0.5 ± 0.1%	
